Patent US12662509B2, “Inhibitors of 17β-HSD7 and uses thereof” (UNIVERSITÉ LAVAL, priority 2021, dated 2026)

How the values were obtained:
[1] = test system: human MCF-7 breast tumors; test: MCF-7 xenograft tumor growth in OVX nude mice; type: in vivo; details: for growth of human MCF-7 breast tumors, % of initial growth: OVX nude mice, INH7 groups 5 mg/kg/day + E1 0.1 μg/mice/day, E1, E2 groups 0.1 μg/mice/day
Text: FIG. 4—is an illustration of the effect of various inhibitors of 17 β-HSD1 (INH7-10 and INH7-464) on the growth of human MCF-7 breast tumors in nude mice over a period of 22 days; illustration of the regression of MCF-7 xenograft tumor growth in OVX nude mice (cf. Table 1). The growth regression curves represent the decrease in tumor volume in response to INH7 (INH7-10 and INH7-464) treatment (Groups 4 and 5). […] Tumor volume=0.52×(length×width^2). Statistical significance by one-way ANOVA assay is shown by **P<0.01.
(§1) Female athymic nude mice (4 weeks) were ovariectomized under isoflurane-induced anesthesia. One week after ovariectomy (OVX), 5×10^6 MCF-7 cells or 10×10^6 T47D cells suspended in a […] mixture of Matrigel (BD)/culture medium (50:50) were administered by s.c. injection on both side of each mice. All mice were supplemented by daily s.c. injection 0.1 μg Estradiol (E2) for 5 weeks. […] The animals were euthanized on day 23, followed by the collection of tumor specimens and blood samples. The estrogen-sensitive organs (uterus and vagina), liver and kidney were removed and excised of fat and weighed. Tumor specimens were photographed and weighed.

[2] = test system: human T47D breast tumors; test: T47D xenograft tumor growth in OVX nude mice; type: in vivo; details: for growth of human T47D breast tumors, % of initial growth: OVX nude mice, INH7 groups 5 mg/kg/day + E1 0.1 μg/mice/day, E1, E2 groups 0.1 μg/mice/day
Text: FIG. 5—is an illustration of the effect of various inhibitors of 17 β-HSD1 (INH7-10 and INH7-464) on the growth of human T47D breast tumors in nude mice over a period of 22 days; illustration of the regression of T47D xenograft tumor growth in OVX nude mice by (cf. Table 2). The growth regression curves represent the decrease in tumor volume in response to INH7 (INH7-10 and INH7-464) treatment (Groups 4 and 5). […] Statistical significance by one-way ANOVA assay is shown by **P<0.01.
as §1

[3] = test system: MCF-7 cell proliferation; test: Effect of INH7 inhibitors on MCF-7 cell proliferation (DNA synthesis, 144 hours, E1 0.1 nM); type: cell-based, human; details: 2 μM
Method: FIG. 1—is an illustration of the effect of various inhibitors of […] (INH7-10, INH7-81 and INH7-464) on MCF-7 cell proliferation over a period of 144 hours.
The effects of various inhibitors, including INH7-464, on MCF-7 cell proliferation over a period of 144 hours is illustrated in FIG. 1. The hormone source E1 (Estrone) was provided at 0.1 nM. Data are reported as % of DNA synthesis vs Control (0.1 nM E1) (100%). Quadruple wells were used for each condition and repeated in three independent experiments. Error bars represent SD. *, P<0.05 vs control; **, P<0.001 vs. control by Student's test.

[4] = Toxicity of INH7-464 in mice, weekly s.c. injection over 21 days; type: in vivo
Method: FIG. 10—is an illustration of the toxicity of the INH7-464 inhibitor in mice (8 mice/group) at various concentrations over a period of 21 days. Control Group: 0.4% methylcellulose/DMSO (92/8). INH7-464 group: Day 1: 20 mg/kg (INH7-464); Day 8: 30 mg/kg (INH7-464); Day 15: 60 mg/kg (INH7-464). […] Statistical significance by T-test is shown by ***P<0.001.
FIG. 11—is an illustration of the effect (toxicity) of the INH7-464 inhibitor on the liver, kidney, ovary and uterus weight, as per the toxicity experiment illustrated in FIG. 10.
INH7-464 was administered by s.c. injection. INH7-464 was first dissolved in DMSO, followed by the addition of 0.4% methylcellulose to obtain a final 8% concentration of co-solvent (methylcellulose/DMSO (92/8). The injected volume was 0.1 mL (s.c.). […] All the mice were weighed every day. The liver, kidney, ovaries, and uterus were collected and weighed following 3 weeks of treatment.

[5] = Cytotoxicity on the MCF-7 cell line; type: cell-based; details: human, MCF-7 cells; incubation time 3 days; 1 nM-100 μM
Method: (§2) FIG. 9A—is an illustration of the cytotoxicity of the INH7-464 inhibitor on the MCF-7 cell line. FIG. 9B—is an illustration of the cytotoxicity of the INH7-464 inhibitor on the MCF-10A cell line. Paclitaxel (PTX) was used as the reference compound and was dissolved in DMSO for the stock solutions. The stock solutions were subsequently diluted at multiple concentrations with culture media in order to obtain the final desired concentrations ranging between 1 nM-100 μM. The incubation time was 3 days. The IC50 values (at which 50% of cell growth inhibition—concentration that inhibits 50% of cell proliferation—is observed) were calculated using an iterative least square regression method (cf. Table 3). The cytotoxicity values for the INH7-464 inhibitor were lower than those for Paclitaxel (PTX) in the different cell lines (cf. Table 3).
(§3) Paclitaxel (PTX) was used as a reference compound and was dissolved in DMSO for the stock solutions. The stock solutions were subsequently diluted at multiple concentrations with culture media in order to obtain the final desired concentrations ranging from 1 nM-100 μM. The incubation time was 3 days. The IC50 values (at which 50% of cell growth inhibition—concentration that inhibits 50% of cell proliferation—is observed) were calculated using an iterative least square regression method.

[6] = Cytotoxicity on the MCF-10A cell line; type: cell-based; details: human, MCF-10A cells; incubation time 3 days; 1 nM-100 μM
Method: as §2, §3

[7] = Body weight of nude mice during treatment of MCF-7 and T47D tumors; type: in vivo; details: MCF-7 and T47D tumor-bearing nude mice; 22 days; 5 mg/kg/day
Text: FIG. 6A—is an illustration of the body weight of the nude mice following treatment of human MCF-7 and T47D breast tumors with INH7-47 over a period of 22 days. […] (FIG. 6B) is an illustration of the body weight of the OVX nude mice (mice having undergone an ovariectomy) over a period of 22 days. The OVX mice were not treated with an INH7 inhibitor, but instead were subjected to daily subcutaneous (s.c.) injection with vehicle (0.4% methylcellulose/DMSO (92/8)).
as §1

With C[C@]12CC[C@@H]3c4ccc(O)cc4CC[C@H]3[C@@H]1CCC2=O [E1, Estrone] the “growth of human MCF-7 breast tumors, % of initial growth” value ([1]; day 0) was 100%, the “growth of human MCF-7 breast tumors, % of initial growth” value ([1]; day 5) was 102.886% and the “growth of human MCF-7 breast tumors, % of initial growth” value ([1]; day 9) was 100.227%. For the same compound, the “growth of human MCF-7 breast tumors, % of initial growth” value ([1]; day 12) was 109.033%, the “growth of human MCF-7 breast tumors, % of initial growth” value ([1]; day 13) was 95.3089% and the “growth of human MCF-7 breast tumors, % of initial growth” value ([1]; day 19) was 100.249%. For the same compound, the “growth of human MCF-7 breast tumors, % of initial growth” value ([1]; day 22) was 102.648%, the “growth of human T47D breast tumors, % of initial growth” value ([2]; day 0) was 100% and the “growth of human T47D breast tumors, % of initial growth” value ([2]; day 5) was 93.64%. The “growth of human T47D breast tumors, % of initial growth” value ([2]; day 9) was 113.43%, the “growth of human T47D breast tumors, % of initial growth” value ([2]; day 12) was 112.0519% and the “growth of human T47D breast tumors, % of initial growth” value ([2]; day 15) was 122.0034%. The “growth of human T47D breast tumors, % of initial growth” value ([2]; day 19) was 112.9356% and the “growth of human T47D breast tumors, % of initial growth” value ([2]; day 22) was 112.831%.
With C[C@]12CC[C@@H]3c4ccc(O)cc4CC[C@H]3[C@@H]1CC[C@@H]2O [E2, Estradiol] the “growth of human MCF-7 breast tumors, % of initial growth” value ([1]; day 0) was 100%, the “growth of human MCF-7 breast tumors, % of initial growth” value ([1]; day 5) was 82.8535% and the “growth of human MCF-7 breast tumors, % of initial growth” value ([1]; day 9) was 97.2662%. The “growth of human MCF-7 breast tumors, % of initial growth” value ([1]; day 12) was 131.541%, the “growth of human MCF-7 breast tumors, % of initial growth” value ([1]; day 13) was 123.252% and the “growth of human MCF-7 breast tumors, % of initial growth” value ([1]; day 19) was 108.413%. The “growth of human MCF-7 breast tumors, % of initial growth” value ([1]; day 22) was 120.974%, the “growth of human T47D breast tumors, % of initial growth” value ([2]; day 0) was 100% and the “growth of human T47D breast tumors, % of initial growth” value ([2]; day 5) was 112.55%. For the same compound, the “growth of human T47D breast tumors, % of initial growth” value ([2]; day 9) was 120.84%, the “growth of human T47D breast tumors, % of initial growth” value ([2]; day 12) was 121.306% and the “growth of human T47D breast tumors, % of initial growth” value ([2]; day 15) was 150.417%. For the same compound, the “growth of human T47D breast tumors, % of initial growth” value ([2]; day 19) was 144.117% and the “growth of human T47D breast tumors, % of initial growth” value ([2]; day 22) was 138.919%.
For CCCCCCCCCN1C[C@]2(CC[C@H]3[C@@H]4CC[C@H]5NC(=O)CC[C@]5(C)[C@H]4CC[C@@]32C)OC1=O [INH7-464, (4aR,4bS,6aS,7R,9aS,9bR,11aR)-4a,6a-dimethyl-3′-nonyltetradecahydrospiro [indeno[5,4-f]quinoline-7,5′-oxazolidine]-2,2′(1H)-dione], the “inhibition of MCF-7 cell proliferation (% of DNA synthesis vs control 0.1 nM E1)” value [3] was “significant inhibition at 2 μM”, the “tolerability after weekly subcutaneous injection” value ([4]; 8/group, 20-60 mg/kg weekly s.c. for 3 weeks (21 days)) was “very well tolerated” and the apparent toxicity ([4]; 20-60 mg/kg weekly (s.c.)) was “no apparent toxicity”. For the same compound, the “weight changes of liver, kidney, ovary and uterus” value ([4]; after 3 weeks of weekly s.c. 20, 30 and 60 mg/kg) was “no significant weight changes”, the “decrease in the tumor size relative to the control (E1)” value ([1]; MCF-7 xenograft model, day 22, 5 mg/kg/day) was 60%±5% and the “growth of human MCF-7 breast tumors, % of initial growth” value ([1]; day 0) was 100%. The “growth of human MCF-7 breast tumors, % of initial growth” value ([1]; day 5) was 88.1406%, the “growth of human MCF-7 breast tumors, % of initial growth” value ([1]; day 9) was 81.8741% and the “growth of human MCF-7 breast tumors, % of initial growth” value ([1]; day 12) was 84.2617%. For the same compound, the “growth of human MCF-7 breast tumors, % of initial growth” value ([1]; day 13) was 66.5956%, the “growth of human MCF-7 breast tumors, % of initial growth” value ([1]; day 19) was 67.8843% and the “growth of human MCF-7 breast tumors, % of initial growth” value ([1]; day 22) was 59.6876%. For the same compound, the IC50 at 3 days [5] was 0.582 µM, the IC50 at 3 days [6] was 2.67 µM and the “body weight of the nude mice” value [7] was “absence of weight loss”. For the same compound, the “decrease in the tumor size relative to the control (E1)” value ([2]; T47D xenograft model, day 22, 5 mg/kg/day) was 51%±5%, the “growth of human T47D breast tumors, % of initial growth” value ([2]; day 0) was 100% and the “growth of human T47D breast tumors, % of initial growth” value ([2]; day 5) was 100.51%. The “growth of human T47D breast tumors, % of initial growth” value ([2]; day 9) was 78.1158%, the “growth of human T47D breast tumors, % of initial growth” value ([2]; day 12) was 76.9139% and the “growth of human T47D breast tumors, % of initial growth” value ([2]; day 15) was 63.5165%. For the same compound, the “growth of human T47D breast tumors, % of initial growth” value ([2]; day 19) was 67.9195% and the “growth of human T47D breast tumors, % of initial growth” value ([2]; day 22) was 50.9558%.
CC(=O)O[C@H]1C(=O)[C@@]2(C)[C@H]([C@H](OC(=O)c3ccccc3)[C@]3(O)C[C@H](OC(=O)[C@H](O)[C@@H](NC(=O)c4ccccc4)c4ccccc4)C(C)=C1C3(C)C)[C@]1(OC(C)=O)CO[C@@H]1C[C@@H]2O [Paclitaxel (PTX), Paclitaxel] gave an IC50 at 3 days [5] of 0.00308 µM and an IC50 at 3 days [6] of 0.000637 µM.
